Data as given in patent US10577363B2, “Substituted piperidine compounds” (EPIZYME, INC., priority 2014, dated 2020).

Tests used:
SMYD3 [1] = biological target: T1, SMYD3 (Homo sapiens (Human), UniProt Q9H7B4); test: SMYD3 biochemical assay (SPA, 3H-SAM methylation of MEKK2 protein substrate)
In short: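 SPA methyltransferase format: tag-cleaved human SMYD3, insect-cell GST-MEKK2 protein substrate, 3H-SAM donor, 30 min RT enzyme–compound preincubation, 100 uM cold SAM quench.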

SMYD3 [2] = biological target: T1, SMYD3; test: SMYD3 cell assay (Trimethyl-MEKK2 In-Cell Western in 293T/17 cells); format: cell-based
In short: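 In-Cell Western readout: methanol-fixed cells stained for trimethyl-MEKK2 and flag tag, ratio per well normalized to DMSO and background controls.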

[3] = average of n = 1 to n = 50, read-out: SMYD3 Biochem IC50
[4] = average of n = 1 to n = 50, read-out: SMYD3 Cell IC50

T1 sequence (Q9H7B4 whole entry): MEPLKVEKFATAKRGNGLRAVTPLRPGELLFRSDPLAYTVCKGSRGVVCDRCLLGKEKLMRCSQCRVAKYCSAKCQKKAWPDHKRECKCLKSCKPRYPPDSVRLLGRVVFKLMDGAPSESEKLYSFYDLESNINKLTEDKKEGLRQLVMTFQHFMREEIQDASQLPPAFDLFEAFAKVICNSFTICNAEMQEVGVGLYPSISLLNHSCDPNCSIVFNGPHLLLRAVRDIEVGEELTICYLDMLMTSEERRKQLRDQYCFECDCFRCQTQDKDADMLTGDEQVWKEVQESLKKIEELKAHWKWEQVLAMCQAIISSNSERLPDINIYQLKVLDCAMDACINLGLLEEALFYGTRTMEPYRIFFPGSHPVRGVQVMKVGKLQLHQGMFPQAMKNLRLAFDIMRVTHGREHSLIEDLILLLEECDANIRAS

Row | Structure (SMILES) | IC50 (SMYD3 [1]; [3]) [nM] | IC50 (SMYD3 [2]; [4]) [nM] | IC50 (SMYD3 [1]; read-out: SMYD3 Biochem IC50*) [nM] | IC50 (SMYD3 [2]; read-out: SMYD3 Cell IC50*) [nM]
1 | COCCCN1CCC(CS(=O)(=O)N2CC[C@H](NC(=O)c3cc(C4CC4)on3)C[C@@H]2Cc2ccccc2)CC1 [compound 750, N-((2S,4S)-2-benzyl-1-(((1-(3-methoxypropyl)piperidin-4-yl)methyl)sulfonyl)piperidin-4-yl)-5-cyclopropylisoxazole-3-carboxamide] | 625 | 3470 | – | –
2 | C[C@H]1C[C@@H](NC(=O)c2cc(C3CC3)on2)CCN1S(=O)(=O)N1CCN[C@H](c2ccccc2)C1 [compound 751, 5-cyclopropyl-N-((2S,4S)-2-methyl-1-(((R)-3-phenylpiperazin-1-yl)sulfonyl)piperidin-4-yl)isoxazole-3-carboxamide] | 633 | 2890 | – | –
3 | O=C(N[C@@H]1CCN(S(=O)(=O)C2CCNC2)[C@H](Cc2ccccc2)C1)c1cc(C2CC2)on1 (stereo partly drawn) [compound 752, N-((2R,4R)-2-benzyl-1-(pyrrolidin-3-ylsulfonyl)piperidin-4-yl)-5-cyclopropylisoxazole-3-carboxamide] | 667 | 2490 | – | –
4 | O=C(N[C@@H]1C[C@H]2CCC[C@@H](C1)N2S(=O)(=O)c1cncc(F)c1)c1cc(C2CC2)on1 [compound 753, 5-cyclopropyl-N-((1R,3s,5S)-9-((5-fluoropyridin-3-yl)sulfonyl)-9-azabicyclo[3.3.1]nonan-3-yl)isoxazole-3-carboxamide] | 672 | 2040 | – | –
5 | C[C@H]1C[C@@H](NC(=O)c2cc(C3CC3)on2)CCN1S(=O)(=O)NCc1c(F)cccc1Cl [compound 754, N-((2S,4S)-1-(N-(2-chloro-6-fluorobenzyl)sulfamoyl)-2-methylpiperidin-4-yl)-5-cyclopropylisoxazole-3-carboxamide] | 676 | 3710 | – | –
6 | C[C@@H]1CN(S(=O)(=O)N2CC[C@H](NC(=O)c3cc(C4CC4)on3)C[C@@H]2C)C[C@H](C)N1C [compound 755, 5-cyclopropyl-N-((2S,4S)-2-methyl-1-(((3S,5R)-3,4,5-trimethylpiperazin-1-yl)sulfonyl)piperidin-4-yl)isoxazole-3-carboxamide] | 677 | 2380 | – | –
7 | C[C@H]1C[C@@H](NC(=O)c2cc(C3CC3)on2)CCN1S(=O)(=O)c1ccnc(N)c1 [compound 756, N-((2S,4S)-1-((2-aminopyridin-4-yl)sulfonyl)-2-methylpiperidin-4-yl)-5-cyclopropylisoxazole-3-carboxamide] | 684 | 1770 | – | –
8 | CN(C1CCNCC1)S(=O)(=O)N1CC[C@@H](NC(=O)c2cc(C3CC3)on2)C[C@H]1Cc1ccccc1 [compound 757, N-((2R,4R)-2-benzyl-1-(N-methyl-N-(piperidin-4-yl)sulfamoyl)piperidin-4-yl)-5-cyclopropylisoxazole-3-carboxamide] | 726 | 7610 | – | –
9 | O=C(N[C@H]1C[C@H]2CC[C@@H](C1)N2S(=O)(=O)N1CC2COCC(C1)N2)c1cc(C2CC2)on1 [compound 758, N-((1R,3r,5S)-8-((3-oxa-7,9-diazabicyclo[3.3.1]nonan-7-yl)sulfonyl)-8-azabicyclo[3.2.1]octan-3-yl)-5-cyclopropylisoxazole-3-carboxamide] | 731 | 1650 | – | –
10 | C[C@H]1C[C@@H](NC(=O)c2cc(C3CC3)on2)CCN1S(=O)(=O)N1CCN(C)[C@H](CCO)C1 [compound 759, 5-cyclopropyl-N-((2S,4S)-1-(((R)-3-(2-hydroxyethyl)-4-methylpiperazin-1-yl)sulfonyl)-2-methylpiperidin-4-yl)isoxazole-3-carboxamide] | 733 | 2060 | – | –
11 | CC(=O)NCc1ccc(S(=O)(=O)N2CC[C@H](NC(=O)c3cc(C4CC4)on3)C[C@@H]2C)cc1 [compound 761, N-((2S,4S)-1-((4-(acetamidomethyl)phenyl)sulfonyl)-2-methylpiperidin-4-yl)-5-cyclopropylisoxazole-3-carboxamide] | 751 | 2850 | – | –
12 | COCC1CCCN1CCS(=O)(=O)N1[C@@H]2CC[C@H]1C[C@@H](NC(=O)c1cc(C3CC3)on1)C2 (stereo partly drawn) [compound 762, 5-cyclopropyl-N-((1R,3r,5S)-8-((2-(2-(methoxymethyl)pyrrolidin-1-yl)ethyl)sulfonyl)-8-azabicyclo[3.2.1]octan-3-yl)isoxazole-3-carboxamide] | 770 | 2070 | – | –
13 | C[C@@H]1C[C@H](NC(=O)c2cc(C3CC3)on2)CCN1C(=O)c1ccc(OCCN2CCNCC2)cc1 [compound 764, 5-cyclopropyl-N-((2R,4R)-2-methyl-1-(4-(2-(piperazin-1-yl)ethoxy)benzoyl)piperidin-4-yl)isoxazole-3-carboxamide] | 806 | 9670 | – | –
14 | CCN1CCN(S(=O)(=O)N2[C@@H]3CCC[C@@H]2CC(NC(=O)c2cc(C4CC4)on2)C3)CC1 (stereo partly drawn) [compound 765, 5-cyclopropyl-N-((1R,5R)-9-((4-ethylpiperazin-1-yl)sulfonyl)-9-azabicyclo[3.3.1]nonan-3-yl)isoxazole-3-carboxamide] | 836 | 2420 | – | –
15 | O=C(N[C@H]1C[C@H]2CC[C@@H](C1)N2S(=O)(=O)[C@H]1CC[C@@H](NCCO)CC1)c1cc(C2CC2)on1 [compound 767, 5-cyclopropyl-N-((1R,3R,5S)-8-(((1S,4S)-4-((2-hydroxyethyl)amino)cyclohexyl)sulfonyl)-8-azabicyclo[3.2.1]octan-3-yl)isoxazole-3-carboxamide] | – | – | 0.4 | 19.4
16 | O=C(N[C@H]1C[C@H]2CC[C@@H](C1)N2S(=O)(=O)[C@H]1CC[C@H](NCCO)CC1)c1cc(C2CC2)on1 [compound 768, 5-cyclopropyl-N-((1R,3R,5S)-8-(((1R,4R)-4-((2-hydroxyethyl)amino)cyclohexyl)sulfonyl)-8-azabicyclo[3.2.1]octan-3-yl)isoxazole-3-carboxamide] | – | – | 0.71 | 34.7
17 | O=C(N[C@H]1C[C@H]2CC[C@@H](C1)N2S(=O)(=O)N1CC2(CCN(CCc3ccccc3)CC2)C1)c1cc(C2CC2)on1 [compound 769, 5-cyclopropyl-N-((1R,3r,5S)-8-((7-phenethyl-2,7-diazaspiro[3.5]nonan-2-yl)sulfonyl)-8-azabicyclo[3.2.1]octan-3-yl)isoxazole-3-carboxamide] | – | – | 0.76 | 17.9
18 | CN(C)[C@H]1CC[C@@H](S(=O)(=O)N2[C@@H]3CC[C@H]2C[C@@H](NC(=O)c2cc(C4CC4)on2)C3)CC1 [compound 771, 5-cyclopropyl-N-((1R,3R,5S)-8-(((1s,4S)-4-(dimethylamino)cyclohexyl)sulfonyl)-8-azabicyclo[3.2.1]octan-3-yl)isoxazole-3-carboxamide] | – | – | 0.94 | 25.6
19 | C[C@H]1C[C@@H](NC(=O)c2cc(C3CC3)on2)CCN1S(=O)(=O)C[C@H]1CC[C@H](N)C1 [compound 772, N-((2S,4S)-1-((((1S,3S)-3-aminocyclopentyl)methyl)sulfonyl)-2-methylpiperidin-4-yl)-5-cyclopropylisoxazole-3-carboxamide] | – | – | 0.95 | 32.7
20 | C[C@H]1C[C@@H](NC(=O)c2cc(C3CC3)on2)CCN1S(=O)(=O)[C@H]1CC[C@H](N)CC1 [compound 773, N-((2S,4S)-1-(((1r,4S)-4-aminocyclohexyl)sulfonyl)-2-methylpiperidin-4-yl)-5-cyclopropylisoxazole-3-carboxamide] | – | – | 1.03 | 17.7
21 | C[C@H]1C[C@@H](NC(=O)c2cc(C3CC3)on2)CCN1S(=O)(=O)N1CCC(C)(N)CC1 [compound 774, N-((2S,4S)-1-((4-amino-4-methylpiperidin-l-yl)sulfonyl)-2-methylpiperidin-4-yl)-5-cyclopropylisoxazole-3-carboxamide] | – | – | 1.04 | 25.6
22 | CC[C@@H]1C[C@H](NC(=O)c2cc(C3CC3)on2)CCN1S(=O)(=O)CC1CCN(C)CC1 [compound 775, 5-cyclopropyl-N-((2R,4R)-2-ethyl-1-(((1-methylpiperidin-4-yl)methyl)sulfonyl)piperidin-4-yl)isoxazole-3-carboxamide] | – | – | 1.07 | 14.4
23 | O=C(N[C@H]1C[C@H]2CC[C@@H](C1)N2S(=O)(=O)[C@H]1CC[C@H](NCc2ccccc2)CC1)c1cc(C2CC2)on1 [compound 776, N-((1R,3R,5S)-8-(((1r,4R)-4-(benzylamino)cyclohexyl)sulfonyl)-8-azabicyclo[3.2.1]octan-3-yl)-5-cyclopropylisoxazole-3-carboxamide] | – | – | 1.12 | 27.6
24 | CCC[C@@H]1C[C@H](NC(=O)c2cc(C3CC3)on2)CCN1S(=O)(=O)CC1CCN(C)CC1 [compound 777, 5-cyclopropyl-N-((2R,4R)-1-(((1-methylpiperidin-4-yl)methyl)sulfonyl)-2-propylpiperidin-4-yl)isoxazole-3-carboxamide] | – | – | 1.14 | 17
25 | O=C(N[C@H]1C[C@H]2CC[C@@H](C1)N2S(=O)(=O)CC1CCN(Cc2ccc(F)cc2)CC1)c1cc(C2CC2)on1 [compound 778, 5-cyclopropyl-N-((1R,3r,5S)-8-(((1-(4-fluorobenzyl)piperidin-4-yl)methyl)sulfonyl)-8-azabicyclo[3.2.1]octan-3-yl)isoxazole-3-carboxamide] | – | – | 1.18 | 44.8
26 | CCc1cc(C(=O)N[C@H]2C[C@H]3CC[C@@H](C2)N3S(=O)(=O)CC2CCN(CCCC(F)(F)F)CC2)no1 [compound 779, 5-ethyl-N-((1R,3r,5S)-8-(((1-(4,4,4-trifluorobutyl)piperidin-4-yl)methyl)sulfonyl)-8-azabicyclo[3.2.1]octan-3-yl)isoxazole-3-carboxamide] | – | – | 1.2 | 28.1
